For orientation: IC50 means the midpoint of a concentration-inhibition curve.

We go through 25 compounds from patent US20260078120A1, “SUBSTITUTED PYRIDOPYRIMIDINONES” (MIRATI THERAPEUTICS, INC., priority 2022, published 2026).

Test [1] concerns SKBR3 (PI3Kα wild type) cells. The test is described as follows: CellTiter-Glo 2.0 luminescent cell viability assay, 72 hours, SKBR3 cells. The following applies: Homo sapiens, SK-BR-3, 72 h, SKBR3 (PI3Kα wild type) cells, CellTiter-Glo, approximately 72 hours; read-out: SKBR3 (WT) Viability IC50. The class given is cell-based. In outline: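 Viability measured via CTG luminescence following roughly 72 hours of compound exposure at 37° C. Dosing used a 10 um starting concentration diluted 1:4 over 10 points; percent-of-vehicle data fitted with a variable-slope four-parameter model for IC50.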
For orientation: ATP-based viability assays read luminescence as a measure of living cells.

Test [2] deals with T47D (PI3Kα H1047R mutant) cells. The test is described as follows: CellTiter-Glo 2.0 luminescent cell viability assay, 72 hours, T47D cells. The class given is cell-based. The following applies: Homo sapiens, T47D, 72 h, T47D (PI3Kα H1047R mutant) cells, CellTiter-Glo, approximately 72 hours; read-out: T47D (H1047R mutant) Viability IC50. In outline:
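Cells seeded at 1000 per well overnight were dosed with a 10-concentration, 1:4 series starting at 10 µM and incubated ~72 h at 37° C. Viability was read by CellTiter-Glo 2.0 luminescence after 30 min at room temperature. IC50 came from four-parameter fits of percent vehicle control.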

On to `Cc1cc([C@@H](C)Nc2ccccc2C(=O)O)c2nc(N3CCC4(CC3)CC4(F)F)c(C)c(=O)n2c1` [Example 11-219, (R)-2-((1-(2-(1,1-difluoro-6-azaspiro[2.5]octan-6-yl)-3,7-dimethyl-4-oxo-4H-pyrido[1,2-a]pyrimidin-9-yl)ethyl)amino)benzoic acid], for which the IC50 was over 10000 nM in test [1] and 495 nM in test [2].
For `Cc1cc([C@@H](C)Nc2ccccc2C(=O)O)c2nc(N3CCC4(CC3)CC4)c(C#N)c(=O)n2c1` [Example 11-220, (R)-2-((1-(3-cyano-7-methyl-4-oxo-2-(6-azaspiro[2.5]octan-6-yl)-4H-pyrido[1,2-a]pyrimidin-9-yl)ethyl)amino)benzoic acid] the same measures were over 10000 nM and 117 nM.
For `Cc1cc([C@@H](C)Nc2ccccc2C(=O)O)c2nc(N3CCC4(CC3)CC4)c(C)c(=O)n2c1` [Example 11-221, (R)-2-((1-(3,7-dimethyl-4-oxo-2-(6-azaspiro[2.5]octan-6-yl)-4H-pyrido[1,2-a]pyrimidin-9-yl)ethyl)amino)benzoic acid] the same measures were over 10000 nM and 255 nM.
On the same counts, the results for `Cc1cc([C@@H](C)Nc2ccccc2C(=O)O)c2nc(N3CC4C(C3)C4(F)F)c(C)c(=O)n2c1` (stereo partly drawn) [Example 11-222, 2-(((1R)-1-(2-(6,6-difluoro-3-azabicyclo[3.1.0]hexan-3-yl)-3,7-dimethyl-4-oxo-4H-pyrido[1,2-a]pyrimidin-9-yl)ethyl)amino)benzoic acid] are over 10000 nM and 156 nM.
Regarding `Cc1cc([C@@H](C)Nc2ccccc2C(=O)O)c2nc(N3CC4CC4C3)c(C#N)c(=O)n2c1` (stereo partly drawn) [Example 11-223, 2-(((1R)-1-(2-(3-azabicyclo[3.1.0]hexan-3-yl)-3-cyano-7-methyl-4-oxo-4H-pyrido[1,2-a]pyrimidin-9-yl)ethyl)amino)benzoic acid], the IC50 is over 10000 nM in test [1] and 126 nM in test [2].
As for `Cc1cc([C@@H](C)Nc2ccccc2C(=O)O)c2nc(N3CC4CC4C3)c(C)c(=O)n2c1` (stereo partly drawn) [Example 11-224, 2-(((1R)-1-(2-(3-azabicyclo[3.1.0]hexan-3-yl)-3,7-dimethyl-4-oxo-4H-pyrido[1,2-a]pyrimidin-9-yl)ethyl)amino)benzoic acid], the figures for the IC50 in test [1] and in test [2] were over 10000 nM and 120 nM, respectively.
Take `Cc1cc([C@@H](C)Nc2ccccc2C(=O)O)c2nc(N3CCN(c4cccc(C#N)c4)CC3)c(C#N)c(=O)n2c1` [Example 11-225, (R)-2-((1-(3-cyano-2-(4-(3-cyanophenyl)piperazin-1-yl)-7-methyl-4-oxo-4H-pyrido[1,2-a]pyrimidin-9-yl)ethyl)amino)benzoic acid]: the IC50 in test [1] is over 10000 nM; in test [2], 144 nM.
`Cc1cc([C@@H](C)Nc2ccccc2C(=O)O)c2nc(N3CCN(c4cccc(C#N)c4)CC3)c(C)c(=O)n2c1` [Example 11-226, (R)-2-((1-(2-(4-(3-cyanophenyl)piperazin-1-yl)-3,7-dimethyl-4-oxo-4H-pyrido[1,2-a]pyrimidin-9-yl)ethyl)amino)benzoic acid]: the IC50 in test [1] is over 10000 nM; in test [2] it was 282 nM.
On the same counts, the results for `Cc1cc([C@@H](C)Nc2ccccc2C(=O)O)c2nc(N3CC4CC(C4)C3)c(C#N)c(=O)n2c1` [Example 11-227, (R)-2-((1-(2-(3-azabicyclo[3.1.1]heptan-3-yl)-3-cyano-7-methyl-4-oxo-4H-pyrido[1,2-a]pyrimidin-9-yl)ethyl)amino)benzoic acid] are over 10000 nM and 123 nM.
On to `Cc1cc([C@@H](C)Nc2ccccc2C(=O)O)c2nc(N3C[C@H]4C[C@@H]3C(F)(F)C4)c(C)c(=O)n2c1` [Example 11-228, 2-(((R)-1-(2-((1R,4S)-6,6-difluoro-2-azabicyclo[2.2.1]heptan-2-yl)-3,7-dimethyl-4-oxo-4H-pyrido[1,2-a]pyrimidin-9-yl)ethyl)amino)benzoic acid], for which the results for the concentration for half-maximal inhibition (IC50) in test [1] and in test [2] were over 10000 nM and 155 nM, respectively.
On the same counts, the results for `Cc1cc([C@@H](C)Nc2ccccc2C(=O)O)c2nc(N3C[C@H]4C[C@@H]3CC4(F)F)c(C#N)c(=O)n2c1` [Example 11-230, 2-(((R)-1-(3-cyano-2-((1R,4R)-5,5-difluoro-2-azabicyclo[2.2.1]heptan-2-yl)-7-methyl-4-oxo-4H-pyrido[1,2-a]pyrimidin-9-yl)ethyl)amino)benzoic acid] are over 10000 nM and 201 nM.
On the same counts, the results for `Cc1cc([C@@H](C)Nc2ccccc2C(=O)O)c2nc(N3C[C@@H]4C[C@H]3CC4(F)F)c(C)c(=O)n2c1` [Example 11-231, 2-(((R)-1-(2-((1S,4S)-5,5-difluoro-2-azabicyclo[2.2.1]heptan-2-yl)-3,7-dimethyl-4-oxo-4H-pyrido[1,2-a]pyrimidin-9-yl)ethyl)amino)benzoic acid] are over 10000 nM and 192 nM.
On the same counts, the results for `C#Cc1ccc(N[C@H](C)c2cc(C)cn3c(=O)cc(N4CCCCC4)nc23)c(C(=O)O)c1` [Example 11-232, (R)-5-ethynyl-2-((1-(7-methyl-4-oxo-2-(piperidin-1-yl)-4H-pyrido[1,2-a]pyrimidin-9-yl)ethyl)amino)benzoic acid] are over 10000 nM and 3280 nM.
As to `Cc1cc([C@@H](C)Nc2ccccc2C(=O)O)c2nc(-c3cnn(-c4ccc(C#N)cc4)c3)c(C)c(=O)n2c1` [Example 11-233, (R)-2-((1-(2-(1-(4-cyanophenyl)-1H-pyrazol-4-yl)-3,7-dimethyl-4-oxo-4H-pyrido[1,2-a]pyrimidin-9-yl)ethyl)amino)benzoic acid], the IC50 was over 10000 nM in test [1] and 212 nM in test [2].
For `Cc1cc([C@@H](C)Nc2ccccc2C(=O)O)c2nc(-c3cn(C)cn3)c(C)c(=O)n2c1` [Example 11-234, (R)-2-((1-(3,7-dimethyl-2-(1-methyl-1H-imidazol-4-yl)-4-oxo-4H-pyrido[1,2-a]pyrimidin-9-yl)ethyl)amino)benzoic acid] the same measures were over 10000 nM and 999 nM.
Turning to `Cc1cc([C@@H](C)Nc2ccccc2C(=O)O)c2nc(-c3c[nH]cn3)c(C)c(=O)n2c1` [Example 11-235, (R)-2-((1-(2-(1H-imidazol-4-yl)-3,7-dimethyl-4-oxo-4H-pyrido[1,2-a]pyrimidin-9-yl)ethyl)amino)benzoic acid], the IC50 in test [1] is over 10000 nM; in test [2] it was 3600 nM.
As to `Cc1cc([C@@H](C)Nc2ccccc2C(=O)O)c2nc(-c3cn(-c4ccc(C#N)cc4)cn3)c(C)c(=O)n2c1` [Example 11-236, (R)-2-((1-(2-(1-(4-cyanophenyl)-1H-imidazol-4-yl)-3,7-dimethyl-4-oxo-4H-pyrido[1,2-a]pyrimidin-9-yl)ethyl)amino)benzoic acid], the IC50 in test [1] is over 10000 nM; in test [2], 679 nM.
For `Cc1cc([C@@H](C)Nc2ccccc2C(=O)O)c2nc(-c3cn(-c4ccc(C#N)cc4)cn3)cc(=O)n2c1` [Example 11-237, (R)-2-((1-(2-(1-(4-cyanophenyl)-1H-imidazol-4-yl)-7-methyl-4-oxo-4H-pyrido[1,2-a]pyrimidin-9-yl)ethyl)amino)benzoic acid] the same measures were over 10000 nM and 1410 nM.
For `Cc1cc([C@@H](C)Nc2ccccc2C(=O)O)c2nc(-c3cccc(C(C)(C)C#N)c3)c(C)c(=O)n2c1` [Example 11-238, (R)-2-((1-(2-(3-(2-cyanopropan-2-yl)phenyl)-3,7-dimethyl-4-oxo-4H-pyrido[1,2-a]pyrimidin-9-yl)ethyl)amino)benzoic acid] the same measures were over 10000 nM and 310 nM.
As to `Cc1cc([C@@H](C)Nc2ccccc2C(=O)O)c2nc(-c3cccc(C(C)(C)C#N)c3)cc(=O)n2c1` [Example 11-239, (R)-2-((1-(2-(3-(2-cyanopropan-2-yl)phenyl)-7-methyl-4-oxo-4H-pyrido[1,2-a]pyrimidin-9-yl)ethyl)amino)benzoic acid], the results for the IC50 in test [1] and in test [2] were over 10000 nM and 2970 nM, respectively.
For `Cc1cc([C@@H](C)Nc2ccccc2C(=O)O)c2nc(-c3cnn(-c4ccc(C#N)cc4)c3)cc(=O)n2c1` [Example 11-240, (R)-2-((1-(2-(1-(4-cyanophenyl)-1H-pyrazol-4-yl)-7-methyl-4-oxo-4H-pyrido[1,2-a]pyrimidin-9-yl)ethyl)amino)benzoic acid] the same measures were 3230 nM and 573 nM.
On the same counts, the results for `C#CC(Nc1ccccc1C(=O)O)c1cc(C)cn2c(=O)c(C)c(N3CCC(F)(F)CC3)nc12` (centres unmarked) [Example 11-241, 2-((1-(2-(4,4-difluoropiperidin-1-yl)-3,7-dimethyl-4-oxo-4H-pyrido[1,2-a]pyrimidin-9-yl)prop-2-yn-1-yl)amino)benzoic acid] are over 10000 nM and over 10000 nM.
For `Cc1cc([C@@H](C)Nc2ccccc2C(=O)O)c2nc(Cl)c(C)c(=O)n2c1` [Example 11-242, (R)-2-((1-(2-chloro-3,7-dimethyl-4-oxo-4H-pyrido[1,2-a]pyrimidin-9-yl)ethyl)amino)benzoic acid] the same measures were over 10000 nM and over 10000 nM.
Consider `Cc1cc([C@@H](C)Nc2ccccc2C(=O)O)c2nc(Cl)c(C#N)c(=O)n2c1` [Example 11-243, (R)-2-((1-(2-chloro-3-cyano-7-methyl-4-oxo-4H-pyrido[1,2-a]pyrimidin-9-yl)ethyl)amino)benzoic acid], for which the values for the IC50 in test [1] and in test [2] were over 10000 nM and 7900 nM, respectively.
On the same counts, the results for `Cc1cc([C@@H](C)Nc2ccccc2C(=O)O)c2nc(C3CC3)c(C#N)c(=O)n2c1` [Example 11-244, (R)-2-((1-(3-cyano-2-cyclopropyl-7-methyl-4-oxo-4H-pyrido[1,2-a]pyrimidin-9-yl)ethyl)amino)benzoic acid] are over 10000 nM and 116 nM.
